From patent publication US11819510B2, “Food composition for ameliorating cerebrovascular diseases containing 2′- fucosyllactose and pharmaceutical composition for preventing or treating cerebrovascular diseases containing 2′-fucosyllactose” (Advanced Protein Technologies Corp., priority 2020, dated 2023)

Assays:
[1] = tested on: carotid artery thrombosis; assay: FeCl3-induced carotid artery thrombosis mouse model, blood flow measurement; assay type: in vivo; settings: 7 days, FeCl3 (10%) mouse model, vehicle 7.47 minutes
Protocol: Male C57BL/6 mice (6-8 weeks old) used in the experiment were purchased from Dooyeol Biotech Co., Ltd., were acclimatized for a predetermined period at 23±1° C. and 56% relative humidity while a general diet was provided thereto for 1 week, and were then used for the experiment. In the following, animal experiments were performed in accordance with the guide for the animal study protocols approved by the Korea Institute of Oriental Medicine Institutional Animal Care and Use Committee (approval number: 20-058). FeCl3 (10%) was used to establish a thrombosis-induced mouse model. Mice were orally administered with 2′-fucosyllactose (500, 1,000 mg/kg BW), 3-fucosyllactose (1,000 mg/kg BW), or ASA (100 mg/kg BW) for 7 days. 2 hours after the last administration, the mice were anesthetized with 2% isoflurane, the left carotid artery was isolated from each mouse, and filter paper (2 mm in diameter) soaked with FeCl3 (10%) was placed on the carotid artery for 2 minutes to induce thrombosis. Blood flow was measured using a blood flow meter (AD meter).

[2] = tested on: collagen-induced aggregation of mouse platelets; assay: Platelet aggregation induced by collagen; assay type: cell-based; settings: collagen 0.5 μg/ml; 2′-fucosyllactose 300 to 1,000 μM, FOS and 3-fucosyllactose 1,000 μM; pretreated 37° C. 15 minutes; vs vehicle; FIG. 2B
[3] = tested on: thromboxane A2 analogue-induced aggregation of mouse platelets; assay: Platelet aggregation induced by thromboxane A2 analogue (U46619); assay type: cell-based; settings: thromboxane A2 analogue 3 μM; pretreated 37° C. 15 minutes; vs vehicle; FIG. 2D
Protocol: (§1) Platelets were collected from the abdominal vein of mice (6-8 weeks of age) using a syringe pretreated with a citrate-dextrose solution (ACD, Sigma). After centrifugation at 300×g at room temperature for 20 minutes to obtain platelet-rich plasma (PRP), 0.5 μM PGE1 was added to the plasma isolated from red blood cells, followed by re-centrifugation at 700×g for 4 minutes. The precipitated platelets were washed with HEPES-Tyrode buffer (5 mM HEPES/NaOH, pH 7.3, 5 mM glucose, 136 mM NaCl, 12 mM NaHCO3, 2.7 mM KCl) containing 10% ACD, followed by centrifugation at 700×g for 5 min. The precipitated platelets were adjusted to a concentration of 3×10^8 cells/mL in HEPES-Tyrode buffer and used in this experiment.
(§2) Mouse platelets immersed in HEPES-Tyrode buffer at a concentration of 3×10^8 cells/mL were pre-treated with a vehicle (distilled water), 1,000 μM FOS, 3′-fucosyllactose, and various concentrations (300 to 1,000 μM) of 2′-fucosyllactose at 37° C. for 15 minutes, and were then activated awith CRP, collagen, thrombin, and thromboxane A2 analogues in a platelet aggregation system. Platelet aggregation was induced at a rate of 1,000 rpm at 37° C. and then measured in a platelet aggregation meter (Chrono-log Corp, Havertown, PA). […]

platelet αIIbβ3 integrin = assay: Flow cytometry of platelet αIIbβ3 integrin activation after CRP activation; assay type: cell-based, mouse; settings: 300 to 1,000 μM, concentration-dependent; 0.15 μg/ml CRP 5 minutes; vs vehicle; FIG. 3B
Protocol: as §1
(§3) The activity of each of platelet P-selectin and αIIbβ3, which are known biomarkers of platelet activity, was measured using a flow cytometer (Gallios, Beckman Coulter). Mouse platelets were pretreated with a vehicle (distilled water), 1,000 μM FOS and 3-fucosyllactose, and various concentrations (300 to 1,000 μM) of 2′-fucosyllactose at 37° C. for 15 minutes, and were then activated with 0.15 ug/ml CRP at 37° C. for 5 minutes, after which the activity thereof was measured using P-selectin and αIIbβ3 antibodies.
(§4) The mechanism of inhibition of platelet activation by HMOs was determined. […]

[4] = tested on: thrombin-induced aggregation of mouse platelets; assay: Platelet aggregation induced by thrombin; assay type: cell-based; settings: thrombin 0.025 U/ml; pretreated 37° C. 15 minutes; vs vehicle; FIG. 2C
Protocol: as §1, §2

[5] = tested on: P-selectin of mouse platelet α-granule; assay: Flow cytometry of platelet P-selectin exposure after CRP activation; assay type: cell-based; settings: 300 to 1,000 μM, concentration-dependent; 0.15 μg/ml CRP 5 minutes; vs vehicle; FIG. 3A
Protocol: as §1, §3, §4

[6] = tested on: CRP-induced aggregation of mouse platelets; assay: Platelet aggregation induced by CRP; assay type: cell-based; settings: CRP 0.15 μg/ml; 2′-fucosyllactose 300 to 1,000 μM, FOS and 3-fucosyllactose 1,000 μM; pretreated 37° C. 15 minutes; vs vehicle; FIG. 2A
HepG2 cells = assay: HMO cytotoxicity test (CCK assay); assay type: cell-based; settings: 24 hours treatment, FIG. 4
Protocol: In this experimental example, the cytotoxicity of HMOs was evaluated by CCK assay (Oh, Y. C.; Jeong, Y. H.; Pak, M. E.; Go, Y., Banhasasim-Tang Attenuates Lipopolysaccharide-Induced Cognitive Impairment by Suppressing Neuroinflammation in Mice. Nutrients 2020, 12, (7)). No protocol for measuring cytotoxicity to platelets has been established, so HepG2 cells were pretreated with an HMO (2′-fucosyllactose or 3-fucosyllactose) in a concentration-dependent manner. After 24 hours, each well was treated with a cell-counting kit solution (Dojindo Molecular Technologies, Inc.), and further incubated for 1 hour, and then absorbance was measured at a wavelength of 450 nm using a microplate reader.

Row | Compound | average carotid artery occlusion time ([1]; 500 mg/kg BW oral) [min] | average carotid artery occlusion time ([1]; 1,000 mg/kg BW oral) [min] | inhibition of platelet aggregation induced by collagen [2] | inhibition of platelet aggregation induced by thromboxane A2 analogue [3] | inhibition of activation of platelet αIIbβ3 integrin (platelet αIIbβ3 integrin) | inhibition of platelet aggregation induced by thrombin [4] | inhibition of activation of P-selectin of mouse platelet α-granule [5] | inhibition of platelet aggregation induced by CRP [6] | cell death of HepG2 (cell viability, CCK assay) (HepG2 cells) | carotid artery occlusion time ([1]; 100 mg/kg BW oral, positive control) [min]
1 | 2′-fucosyllactose | 11.79 | 14.52 | significantly inhibited | did not exhibit an inhibitory effect | significantly inhibit | did not exhibit an inhibitory effect | significantly inhibit | significantly inhibited | not observed | –
2 | fructooligosaccharide [FOS] | – | – | not significantly inhibited | – | – | – | – | not significantly inhibited | – | –
3 | 3-fucosyllactose [reference compound] | – | 8.18 | not significantly inhibited | – | – | – | – | not significantly inhibited | not observed | –
4 | CC(=O)Oc1ccccc1C(=O)O [aspirin, reference compound] | – | – | – | – | – | – | – | – | – | 18.05
